Data reported in US9365614B2, “IAP BIR domain binding compounds” (priority 2006, dated 2016).
*1 amine or outer side, *2 acyl side, *3 side chain or, on linkers, in order; H or OH if unused. Where a SMILES comes first, the peptide text is derived from it. Bridges are numbered along the chain shown (N, C = ends). Roman numbers before positions name the chains, in order. [ ]: non-standard residue; d: D form. The star is where a group is joined. cisHyp = O=C(O)[C@@H]1C[C@H](O)CN1; pXylylene = c1cc(C[*:2])ccc1C[*:1]; NHPhenethyl = c1ccc(CCN*)cc1; Tle = CC(C)(C)[C@H](N)C(=O)O; NMeA = CN[C@@H](C)C(=O)O

Test system: SKOV-3 cells
Experiment: Survival MTT assay, SKOV-3
Type: cell-based
Settings: Homo sapiens, SK-OV-3, 72 h, read-out: EC50 against SKOV3
Procedure: One day prior the treatment with compound, 2000 to 4000 cells per well were plated in a tissue culture treated 96 well format dish with 100 ul of media and incubated at 37° C., 5% CO2. On the day of compound treatment, compounds were diluted with cell culture media to a working stock concentration of 2×. 100 uL of diluted compound were then added to each well. The treated plate was incubated for 72 h at 37° C., 5% CO2. Upon incubation, the cell viability was assessed as followed 20 uL of MTT reagent at 5 mg/ml were added per well to cell plate. The plate was incubated for 2 h at 37° C. in presence of 5% CO2. The supernatant was then removed from the plate and 100 uL of isopropanol were added. The absorbance was measured in a TECAN spectrophotometer at 570 nm. The percentage of viability was expressed in percentage of the signal obtained with non treated cells.

Row | SMILES | EC50 [nM]
1 | CN[C@@H](C)C(=O)N[C@H](C(=O)N1C[C@@H](OCc2ccc(CO[C@H]3C[C@@H](C(=O)NCCc4ccccc4)N(C(=O)[C@@H](NC(=O)[C@H](C)NC)C(C)(C)C)C3)cc2)C[C@H]1C(=O)NCCc1ccccc1)C(C)(C)C [Compound 29] (I: H-[NMeA]-[Tle]-[cisHyp]-NHPhenethyl / II: H-[NMeA]-[Tle]-[cisHyp]-NHPhenethyl; linker I:3-II:3 via pXylylene) | 88
2 | CN[C@@H](C)C(=O)N[C@H](C(=O)N1C[C@@H](NC(=O)c2ccc(C(=O)N[C@H]3C[C@@H](CN(CCc4ccc(F)cc4)S(C)(=O)=O)N(C(=O)[C@@H](NC(=O)[C@H](C)NC)C(C)(C)C)C3)cc2)C[C@H]1CN(CCc1ccc(F)cc1)S(C)(=O)=O)C(C)(C)C [Compound 30] | 188

Same assay, conditions: Homo sapiens, SK-OV-3, 72 h, read-out: SKOV-3 EC50

Row | SMILES | EC50 [nM]
3 | CN[C@@H](C)C(=O)C[C@H](C(=O)N1C[C@@H](NC(=O)CCCCCCCC(=O)N[C@H]2C[C@@H](C(=O)N[C@@H]3CCCc4ccccc43)N(C(=O)[C@@H](NC(=O)[C@H](C)NC)C(C)(C)C)C2)C[C@H]1C(=O)N[C@@H]1CCCc2ccccc21)C(C)(C)C [Compound 12] | < 50
4 | CN[C@@H](C)C(=O)N[C@H](C(=O)N1CC(NC(=O)CCCCCC(=O)N[C@H]2C[C@@H](C(=O)N[C@@H]3CCCc4ccccc43)N(C(=O)[C@@H](NC(=O)[C@H](C)NC)C(C)(C)C)C2)C[C@H]1C(=O)NC1CCCc2ccccc21)C(C)(C)C (stereo partly shown) [Compound 13] | < 50
5 | CN[C@@H](C)C(=O)N[C@H](C(=O)N1C[C@@H](NC(=O)CCCC(=O)N[C@H]2C[C@@H](C(=O)N[C@@H]3CCCc4ccccc43)N(C(=O)[C@@H](NC(=O)[C@H](C)NC)C(C)(C)C)C2)C[C@H]1C(=O)NC1CCCc2ccccc21)C(C)(C)C (stereo partly shown) [Compound 14] | < 50
6 | CN[C@@H](C)C(=O)N[C@H](C(=O)N1C[C@@H](NC(=O)Cc2ccc(CC(=O)N[C@H]3C[C@@H](C(=O)N[C@@H]4CCCc5ccccc54)N(C(=O)[C@@H](NC(=O)[C@H](C)NC)C(C)(C)C)C3)cc2)C[C@H]1C(=O)N[C@@H]1CCCc2ccccc21)C(C)(C)C [Compound 15] | < 50
7 | CN[C@@H](C)C(=O)N[C@H](C(=O)N1C[C@@H](NC(=O)c2ccc(Oc3ccc(C(=O)N[C@H]4C[C@@H](C(=O)N[C@@H]5CCCc6ccccc65)N(C(=O)[C@@H](NC(=O)[C@H](C)NC)C(C)(C)C)C4)cc3)cc2)C[C@H]1C(=O)N[C@@H]1CCCc2ccccc21)C(C)(C)C [Compound 16] | < 50
8 | CN[C@@H](C)C(=O)N[C@H](C(=O)N1C[C@@H](OCc2ccc(CO[C@H]3C[C@@H](C(=O)N[C@@H]4CCCc5ccccc54)N(C(=O)[C@@H](NC(=O)[C@H](C)NC)C(C)(C)C)C3)cc2)C[C@H]1C(=O)N[C@@H]1CCCc2ccccc21)C(C)(C)C [Compound 17] | < 50
9 | CN[C@@H](C)C(=O)N[C@H](C(=O)N1C[C@@H](NC(=O)c2ccc(C(=O)N[C@H]3C[C@@H](C(=O)OC)N(C(=O)[C@@H](NC(=O)[C@H](C)NC)C(C)(C)C)C3)cc2)C[C@H]1C(=O)OC)C(C)(C)C [Compound 18] | > 1000
10 | CN[C@@H](C)C(=O)N[C@H](C(=O)N1C[C@@H](NC(=O)c2ccc(C(=O)N[C@H]3C[C@@H](C(=O)NCCc4ccc(F)cc4)N(C(=O)[C@@H](NC(=O)[C@H](C)NC)C(C)(C)C)C3)cc2)C[C@H]1C(=O)NCCc1ccc(F)cc1)C(C)(C)C [Compound 19] | < 50
11 | CN[C@@H](C)C(=O)N[C@H](C(=O)N1C[C@@H](NC(=O)c2ccc(C(=O)N[C@H]3C[C@@H](C(=O)NCCc4ccccc4)N(C(=O)[C@@H](NC(=O)[C@H](C)NC)C(C)(C)C)C3)cc2)C[C@H]1C(=O)NCCc1ccccc1)C(C)(C)C [Compound 20] | < 50
12 | CN[C@@H](C)C(=O)N[C@H](C(=O)N1C[C@@H](NC(=O)c2ccc(C(=O)N[C@H]3C[C@@H](C(=O)NC[C@H](C)c4ccccc4)N(C(=O)[C@@H](NC(=O)[C@H](C)NC)C(C)(C)C)C3)cc2)C[C@H]1C(=O)NC[C@@H](C)c1ccccc1)C(C)(C)C [Compound 21] | < 50
13 | CN[C@@H](C)C(=O)N[C@H](C(=O)N1C[C@@H](NC(=O)c2ccc(C(=O)N[C@H]3C[C@@H](C(=O)NC(C)C)N(C(=O)[C@@H](NC(=O)[C@H](C)NC)C(C)(C)C)C3)cc2)C[C@H]1C(=O)NC(C)C)C(C)(C)C [Compound 22] | < 250
14 | CN[C@@H](C)C(=O)N[C@H](C(=O)N1C[C@@H](NC(=O)c2ccc(C(=O)N[C@H]3C[C@@H](C(=O)N[C@@H]4CCCc5ccccc54)N(C(=O)[C@@H](NC(=O)[C@H](C)NC)C(C)(C)C)C3)cc2)C[C@H]1C(=O)N[C@H]1CCCc2ccccc21)C(C)(C)C [Compound 23] | < 50
15 | CN[C@@H](C)C(=O)N[C@H](C(=O)N1C[C@@H](NC(=O)c2ccc(C(=O)N[C@H]3C[C@@H](C(=O)NC(c4ccccc4)c4ccccc4)N(C(=O)[C@@H](NC(=O)[C@H](C)NC)C(C)(C)C)C3)cc2)C[C@H]1C(=O)NC(c1ccccc1)c1ccccc1)C(C)(C)C [Compound 24] | < 50
16 | CN[C@@H](C)C(=O)N[C@H](C(=O)N1C[C@@H](NC(=O)c2ccc(C(=O)N[C@H]3C[C@@H](CN(CCc4ccccc4)C(C)=O)N(C(=O)[C@@H](NC(=O)[C@H](C)NC)C(C)(C)C)C3)cc2)C[C@H]1CN(CCc1ccccc1)C(C)=O)C(C)(C)C [Compound 25] | < 50
17 | CN[C@@H](C)C(=O)N[C@H](C(=O)N1C[C@@H](NC(=O)c2ccc(C(=O)N[C@H]3C[C@@H](CN(CCc4ccccc4)S(C)(=O)=O)N(C(=O)[C@@H](NC(=O)[C@H](C)NC)C(C)(C)C)C3)cc2)C[C@H]1CN(CCc1ccccc1)S(C)(=O)=O)C(C)(C)C [Compound 26] | < 250
18 | CN[C@@H](C)C(=O)N[C@H](C(=O)N1C[C@@H](NC(=O)c2ccc(C(=O)N[C@H]3C[C@@H](CN(CCc4ccccc4)C(=O)c4ccccc4)N(C(=O)[C@@H](NC(=O)[C@H](C)NC)C(C)(C)C)C3)cc2)C[C@H]1CN(CCc1ccccc1)C(=O)c1ccccc1)C(C)(C)C [Compound 27] | < 250
19 | CN[C@@H](C)C(=O)N[C@H](C(=O)N1C[C@@H](NC(=O)c2ccc(C(=O)N[C@H]3C[C@@H](CN(CCc4ccc(F)cc4)C(C)=O)N(C(=O)[C@@H](NC(=O)[C@H](C)NC)C(C)(C)C)C3)cc2)C[C@H]1CN(CCc1ccc(F)cc1)C(C)=O)C(C)(C)C [Compound 28] | < 50
20 | CN[C@@H](C)C(=O)N[C@H](C(=O)N1C[C@@H](OCc2ccc(CO[C@H]3C[C@@H](C(=O)NCCc4ccccc4)N(C(=O)[C@@H](NC(=O)[C@H](C)NC)C(C)(C)C)C3)cc2)C[C@H]1C(=O)NCCc1ccccc1)C(C)(C)C [Compound 29] (I: H-[NMeA]-[Tle]-[cisHyp]-NHPhenethyl / II: H-[NMeA]-[Tle]-[cisHyp]-NHPhenethyl; linker I:3-II:3 via pXylylene) | < 250
21 | CN[C@@H](C)C(=O)N[C@H](C(=O)N1C[C@@H](NC(=O)c2ccc(C(=O)N[C@H]3C[C@@H](CN(CCc4ccc(F)cc4)S(C)(=O)=O)N(C(=O)[C@@H](NC(=O)[C@H](C)NC)C(C)(C)C)C3)cc2)C[C@H]1CN(CCc1ccc(F)cc1)S(C)(=O)=O)C(C)(C)C [Compound 30] | > 1000
22 | CN[C@@H](C)C(=O)N[C@H](C(=O)N1C[C@@H](NC(=O)c2ccc(C(=O)N[C@H]3C[C@@H](C(=O)NCC(c4ccccc4)c4ccccc4)N(C(=O)[C@@H](NC(=O)[C@H](C)NC)C(C)(C)C)C3)cc2)C[C@H]1C(=O)NCC(c1ccccc1)c1ccccc1)C(C)(C)C [Compound 31] | < 250
23 | CN[C@@H](C)C(=O)N[C@H](C(=O)N1C[C@@H](NC(=O)c2ccc(C(=O)N[C@H]3C[C@@H](C(=O)NCc4cccc5ccccc45)N(C(=O)[C@@H](NC(=O)[C@H](C)NC)C(C)(C)C)C3)cc2)C[C@H]1C(=O)NCc1cccc2ccccc12)C(C)(C)C [Compound 32] | < 250
24 | CN[C@@H](C)C(=O)N[C@H](C(=O)N1C[C@@H](NS(=O)(=O)c2cccc(S(=O)(=O)N[C@H]3C[C@@H](C(=O)N[C@@H]4CCCc5ccccc54)N(C(=O)[C@@H](NC(=O)[C@H](C)NC)C(C)(C)C)C3)c2)C[C@H]1C(=O)N[C@@H]1CCCc2ccccc21)C(C)(C)C [Compound 33] | < 50
25 | CN[C@@H](C)C(=O)N[C@H](C(=O)N1C[C@@H](NC(=O)c2ccc(C(=O)N[C@H]3C[C@@H](C(=O)N[C@@H]4CCCc5ccccc54)N(C(=O)[C@@H](NC(=O)[C@H](C)NC)C(C)(C)C)C3)cc2)C[C@H]1C(=O)NC1CCCc2ccccc21)C(C)(C)C (stereo partly shown) [Compound 34] | < 250
26 | CN[C@@H](C)C(=O)N[C@H](C(=O)N1C[C@@H](NC(=O)CNC(=O)c2ccc(C(=O)NCC(=O)N[C@H]3C[C@@H](C(=O)N[C@@H]4CCCc5ccccc54)N(C(=O)[C@@H](NC(=O)[C@H](C)NC)C(C)(C)C)C3)cc2)C[C@H]1C(=O)N[C@@H]1CCCc2ccccc21)C(C)(C)C [Compound 35] | < 250
27 | CN[C@@H](C)C(=O)N[C@H](C(=O)N1C[C@@H](NC(=O)CNC(=O)C(=O)NCC(=O)N[C@H]2C[C@@H](C(=O)N[C@@H]3CCCc4ccccc43)N(C(=O)[C@@H](NC(=O)[C@H](C)NC)C(C)(C)C)C2)C[C@H]1C(=O)N[C@@H]1CCCc2ccccc21)C(C)(C)C [Compound 36] | > 1000
28 | CN[C@@H](C)C(=O)NC(C(=O)N1C[C@@H](NC(=O)CNC(=O)c2cccc(C(=O)NCC(=O)N[C@H]3C[C@@H](C(=O)N[C@@H]4CCCc5ccccc54)N(C(=O)[C@@H](NC(=O)[C@H](C)NC)C(C)(C)C)C3)c2)CC1C(=O)N[C@@H]1CCCc2ccccc21)C(C)(C)C (stereo partly shown) [Compound 37] | > 1000
29 | CN[C@@H](C)C(=O)N[C@H](C(=O)N1C[C@@H](NC(=O)CNC(=O)c2ccc(-c3ccc(C(=O)NCC(=O)N[C@H]4C[C@@H](C(=O)N[C@@H]5CCCc6ccccc65)N(C(=O)[C@@H](NC(=O)[C@H](C)NC)C(C)(C)C)C4)cc3)cc2)C[C@H]1C(=O)N[C@@H]1CCCc2ccccc21)C(C)(C)C [Compound 38] | < 250
30 | CN[C@@H](C)C(=O)N[C@H](C(=O)N1C[C@@H](NS(=O)(=O)c2ccc(-c3ccc(S(=O)(=O)N[C@H]4C[C@@H](C(=O)N[C@@H]5CCCc6ccccc65)N(C(=O)[C@@H](NC(=O)[C@H](C)NC)C(C)(C)C)C4)cc3)cc2)C[C@H]1C(=O)NC1CCCc2ccccc21)C(C)(C)C (stereo partly shown) [Compound 39] | < 50
31 | CN[C@@H](C)C(=O)N[C@H](C(=O)N1C[C@@H](NC(=O)c2cccc(C(=O)N[C@H]3C[C@@H](C(=O)N[C@@H]4CCCc5ccccc54)N(C(=O)[C@@H](NC(=O)[C@H](C)NC)C(C)(C)C)C3)c2)C[C@H]1C(=O)N[C@@H]1CCCc2ccccc21)C(C)(C)C [Compound 40] | < 50
